The record followed here is patent publication US20230286929A1, “AROMATIC BRIDGED RING AMIDE DERIVATIVES FOR THE TREATMENT AND PROPHYLAXIS OF HEPATITIS B VIRUS INFECTION” (Hoffmann-La Roche Inc., priority 2020, published 2023).

Common to all, as to type: cell-based
In one data set the test system is HBeAg. Put plainly: PHH HBV natural infection assay, HBeAg (alphalisa). As to conditions: Hepatitis B virus, Hepatocyte, 72 h, read-out: HbeAg IC50. On the procedure: (§1) Detailed procedures regarding primary human hepatocyte (PHH) HBV natural infection assay are described as below. One tube of frozen PHH (10 million cells) is thawed in 37° C. water bath and then transferred to 20 mL of PHH thawing medium (Sigma, InVitroGRO HT Medium, Cat. S03319) with gently mixing. The cells were then centrifuged at […] for 5 min, the supernatant was discarded and the tube was refilled with 25 mL of PHH plating medium (Sigma, InVitroGRO CP Medium, Cat. 503317). The tube was shaken very gently to re-suspend all cells. 50 μl of cells were transferred to each well 384-well collagen I coated plate with appropriate liquid handling equipment, e.g. Integra VIAFLO384 or Agilent Bravo. The cells were then cultured for 24 hours in a cell incubator. For HBV infection, after PHH attachment on the culture plate, the plating medium was removed and replenished with PHH culture medium containing HBV virus. The PHH culture medium was prepared with Dulbecco's Modified Eagle Medium (DMEM)/F12 (1:1 in volume ratio) containing 10% fetal bovine serum (Gibco, Cat. 10099141), […] (Gibco, Cat. PHG03I1L), 20 ng/mL dexamethasone (Sigma, Cat. D4902-100 mg), 250 ng/mL human recombinant insulin (Gibco, Cat. 41400045) and 100 U/mL penicillin. HBV virus at 200 genome equivalent (GE) per cell with 4% PEG8000 (Sigma, Cat. P1458) containing culture medium were added to the PHH culture medium for infection. The cells were then cultured for 24 hours in cell incubator. Then the cell culture supernatant was removed. The HBV-infected PHH were cultured with sandwich culture method with PHH culture medium containing 1% DMSO and 0.25 mg/mL matrix gel for 72 hours. The supernatant was then refreshed with PHH culture medium containing different concentrations of testing compounds for two times with 72-hour interval. At the end of treatment, the supernatant was collected for viral markers measurements, including HBsAg, HBeAg, HBV DNA and cytotoxicity. HBsAg and HBeAg were detected using alphalisa method using their specific antibodies. For HBV DNA detection, HBV DNA Quantitative Fluorescence Diagnostic Kit (Sansure Biotech Inc.) was used following the manufacture's protocol. Cytotoxicity was determined using Cell Counting Kit-8 (CCK8, Dojindo Molecular Technologies, Inc.).
(§2) The compounds of the present invention were tested for their capacity to inhibit HBsAg and HBeAg as described herein.
For orientation: In Alpha technology, singlet oxygen from a donor bead excites a nearby acceptor bead.

The nature of data set [1]: Cytotoxicity in PHH natural infection assay (Cell Counting Kit-8). As to conditions: HBV-infected primary human hepatocytes, CCK8. On the procedure:
as §1

A further data set deals with HBsAg. Put plainly: PHH HBV natural infection assay, HBsAg (alphalisa). As to conditions: Hepatitis B virus, Hepatocyte, 72 h, read-out: HBsAg IC50. On the procedure:
as §1, §2

As to `O=C(NC12CC(c3nc4ccc(Cl)cc4o3)(C1)C2)c1ccc(S(=O)(=O)CC2CC2)o1` [Example 34, N-[3-(6-chloro-1,3-benzoxazol-2-yl)-1-bicyclo[1.1.1]pentanyl]-5-(cyclopropylmethylsulfonyl)furan-2-carboxamide], the figures for the IC50 in the data set with HBeAg and in the data set on HBsAg were 2.79 µM and 3.54 µM, respectively. Moreover, the CC50 at 144 h in data set [1] was 95.4 µM.
On to `CC1(C(=O)NC23CCC(c4nc5cc(Cl)ccc5o4)(CC2)CC3)CCS(=O)(=O)C1` (stereo not drawn) [Example 51, N-[4-(5-chloro-1,3-benzoxazol-2-yl)-1-bicyclo[2.2.2]octanyl]-3-methyl-1,1-dioxo-thiolane-3-carboxamide], for which the values for the half-maximal inhibitory concentration (IC50) with HBeAg and in the data set with HBsAg were 4.87 µM and 9.21 µM, respectively. Further, the CC50 at 144 h in data set [1] was greater than 100 µM.
In the same order, the values of `C[S@+]([O-])c1ccc(C(=O)NC23CC(c4nc5cc(Cl)ccc5o4)(C2)C3)o1` [Example 2-a, N-[3-(5-chloro-1,3-benzoxazol-2-yl)-1-bicyclo[1.1.1]pentanyl]-5-[(S)-methylsulfinyl]furan-2-carboxamide] are 1.19 µM, 2.38 µM and greater than 100 µM.
In the same order, the values of `CS(=O)(=O)c1cccc(C(=O)NC23CC(c4nc5ccc(Cl)cc5o4)(C2)C3)c1` [Example 36, N-[3-(6-chloro-1,3-benzoxazol-2-yl)-1-bicyclo[1.1.1]pentanyl]-3-methylsulfonyl-benzamide] are 2.5 µM, 2.25 µM and greater than 100 µM.
In the same order, the values of `O=C(NC12CCC(c3nc4cc(Cl)ccc4o3)(CC1)CC2)c1ccc(C(F)(F)F)o1` [Example 47, N-[4-(5-chloro-1,3-benzoxazol-2-yl)-1-bicyclo[2.2.2]octanyl]-5-(trifluoromethyl)furan-2-carboxamide] are 3.91 µM, 7.69 µM and greater than 100 µM.
In the case of `CS(=O)(=O)Cc1ccc(C(=O)NC23CC(c4nc5ccc(Cl)cc5o4)(C2)C3)o1` [Example 39, N-[3-(6-chloro-1,3-benzoxazol-2-yl)-1-bicyclo[1.1.1]pentanyl]-5-(methylsulfonylmethyl)furan-2-carboxamide], the values for the IC50 in the data set with HBeAg and with HBsAg were 0.75 µM and 0.648 µM, respectively. The compound further had a CC50 at 144 h in data set [1] greater than 100 µM.
Regarding `CS(=O)(=O)Cc1ccc(C(=O)NC23CC(c4nc5cc(Cl)cnc5o4)(C2)C3)o1` [Example 41, N-[3-(6-chlorooxazolo[5,4-b]pyridin-2-yl)-1-bicyclo[1.1.1]pentanyl]-5-(methylsulfonylmethyl)furan-2-carboxamide], the half-maximal inhibitory concentration (IC50) in the data set with HBeAg was 6.21 µM; in the data set with HBsAg, 5.7 µM. In data set [1], this compound came in with a CC50 at 144 h greater than 100 µM.
In the same order, the values of `O=C(NC12CCC(c3nc4cc(Cl)ccc4o3)(CC1)CC2)C1CCS(=O)(=O)C1` (stereo not drawn) [Example 50, N-[4-(5-chloro-1,3-benzoxazol-2-yl)-1-bicyclo[2.2.2]octanyl]-1,1-dioxo-thiolane-3-carboxamide] are 5.11 µM, 4.14 µM and greater than 100 µM.
In the case of `O=C(NC12CC(c3nc4cc(Cl)cnc4o3)(C1)C2)c1ccnc(C(F)(F)F)c1` [Example 42, N-[3-(6-chlorooxazolo[5,4-b]pyridin-2-yl)-1-bicyclo[1.1.1]pentanyl]-2-(trifluoromethyl)pyridine-4-carboxamide], the IC50 turned out to be 10.6 µM in the data set with HBeAg and 8.83 µM with HBsAg. In data set [1], this compound had a CC50 at 144 h of 92 µM.
In the same order, the values of `C[S@@+]([O-])c1ccc(C(=O)NC23CC(c4nc5cc(Cl)ccc5o4)(C2)C3)o1` [Example 2-b, N-[3-(5-chloro-1,3-benzoxazol-2-yl)-1-bicyclo[1.1.1]pentanyl]-5-[(R)-methylsulfinyl]furan-2-carboxamide] are 1.89 µM, 3.64 µM and greater than 100 µM.
In the same order, the values of `O=C(CC1CCCS(=O)(=O)C1)NC12CCC(c3nc4cc(Cl)ccc4o3)(CC1)CC2` (stereo not drawn) [Example 54, N-[4-(5-chloro-1,3-benzoxazol-2-yl)-1-bicyclo[2.2.2]octanyl]-2-(1,1-dioxothian-3-yl)acetamide] are 3.22 µM, 3.38 µM and 43.9 µM.
In the same order, the values of `O=C(NC12CC(c3nc4cc(Cl)ccc4o3)(C1)C2)c1ccc(Br)cc1` [Example 20, 4-bromo-N-[3-(5-chloro-1,3-benzoxazol-2-yl)-1-bicyclo[1.1.1]pentanyl]benzamide] are 7.21 µM, 4.28 µM and greater than 100 µM.
Turning to `CSc1cccc(C(=O)NC23CC(c4nc5cc(Cl)ccc5o4)(C2)C3)c1` [Example 21, N-[3-(5-chloro-1,3-benzoxazol-2-yl)-1-bicyclo[1.1.1]pentanyl]-3-methylsulfanyl-benzamide], the half-maximal inhibitory concentration (IC50) was 1.87 µM in the data set on HBeAg and 2.6 µM in the data set on HBsAg. The compound further registered a cytotoxic concentration (CC50) at 144 h in data set [1] greater than 100 µM.
Turning to `O=C(NC12CCC(c3nc4cc(Cl)ccc4o3)(CC1)CC2)C1CCCS1(=O)=O` (stereo not drawn) [Example 49, N-[4-(5-chloro-1,3-benzoxazol-2-yl)-1-bicyclo[2.2.2]octanyl]-1,1-dioxo-thiolane-2-carboxamide], the IC50 stood at 1.27 µM with HBeAg and 2.73 µM with HBsAg. In data set [1], this compound came in with a CC50 at 144 h greater than 100 µM.
In the same order, the values of `O=C(NC12CC(c3nc4cc(Cl)ccc4o3)(C1)C2)c1ccc(S(=O)(=O)CC2COC2)o1` [Example 14, N-[3-(5-chloro-1,3-benzoxazol-2-yl)-1-bicyclo[1.1.1]pentanyl]-5-(oxetan-3-ylmethylsulfonyl)furan-2-carboxamide] are 3.56 µM, 5.18 µM and 95.7 µM.
In the same order, the values of `O=C(NC12CC(c3nc4cc(Cl)ccc4o3)(C1)C2)c1ccc(S(=O)(=O)CC2CC2)o1` [Example 7, N-[3-(5-chloro-1,3-benzoxazol-2-yl)-1-bicyclo[1.1.1]pentanyl]-5-(cyclopropylmethylsulfonyl)furan-2-carboxamide] are 1.21 µM, 1.31 µM and 73.1 µM.
In the same order, the values of `C[S@@](=N)(=O)c1ccc(C(=O)NC23CC(c4nc5cc(Cl)ccc5o4)(C2)C3)o1` [Example 12-a, N-[3-(5-chloro-1,3-benzoxazol-2-yl)-1-bicyclo[1.1.1]pentanyl]-5-[(R)-methylsulfonimidoyl]furan-2-carboxamide] are 1.3 µM, 2.23 µM and greater than 100 µM.
Take `O=C(NC12CC(c3nc4cc(Cl)ccc4o3)(C1)C2)c1ccc([S+]([O-])C2CC2)o1` (stereo not drawn) [Example 4, N-[3-(5-chloro-1,3-benzoxazol-2-yl)-1-bicyclo[1.1.1]pentanyl]-5-cyclopropylsulfinyl-furan-2-carboxamide]: the IC50 with HBeAg was 1.32 µM; with HBsAg it was 2.81 µM. The compound further came in with a CC50 at 144 h in data set [1] of 80 µM.
As for `CS(=O)(=O)c1ccc(C(=O)NC23CC(c4nc5cccc(Cl)c5o4)(C2)C3)o1` [Example 44, N-[3-(7-chloro-1,3-benzoxazol-2-yl)-1-bicyclo[1.1.1]pentanyl]-5-methylsulfonyl-furan-2-carboxamide], the IC50 in the data set with HBeAg amounted to 3.1 µM; with HBsAg, 8.93 µM. The compound also returned a CC50 at 144 h in data set [1] greater than 100 µM.
In the same order, the values of `CS(=O)(=O)c1ccc(C(=O)NC23CC(c4nc5ccc(F)cc5o4)(C2)C3)o1` [Example 45, N-[3-(6-fluoro-1,3-benzoxazol-2-yl)-1-bicyclo[1.1.1]pentanyl]-5-methylsulfonyl-furan-2-carboxamide] are 4.48 µM, 8.63 µM and greater than 100 µM.
In the same order, the values of `O=C(CC1CCCS1(=O)=O)NC12CCC(c3nc4cc(Cl)ccc4o3)(CC1)CC2` (stereo not drawn) [Example 53, N-[4-(5-chloro-1,3-benzoxazol-2-yl)-1-bicyclo[2.2.2]octanyl]-2-(1,1-dioxothiolan-2-yl)acetamide] are 1.87 µM, 2.28 µM and greater than 100 µM.
In the same order, the values of `N=S(=O)(CC1COC1)c1ccc(C(=O)NC23CC(c4nc5cc(Cl)ccc5o4)(C2)C3)o1` (stereo not drawn) [Example 15, N-[3-(5-chloro-1,3-benzoxazol-2-yl)-1-bicyclo[1.1.1]pentanyl]-5-(oxetan-3-ylmethylsulfonimidoyl)furan-2-carboxamide] are 3.31 µM, 4.76 µM and greater than 100 µM.

What is called IC50 is the concentration at which inhibition is half-maximal. In general, CC50 refers to the concentration that lowers cell viability or growth by half. The low end stands for harm at low concentration, the high end for better tolerance by the cells.
